# Tests used:
# PtJBMT = experiment: Radiochemical methyltransferase assay (detoxification activity) with PtJBMT; format: biochemical; details: 1 mM substrate, 3 μM 14C-SAM, 25° C., 30 min; relative to the activity of PtJBMTm3 with jasmonic acid set as 1
# Description: (§1) The detoxification activity of PtJBMTm3 was determined using radiochemical methyltransferase assays. The assays were performed with a 50 μL volume containing 50 mM Tris-HCl, pH 7.5, 1 mM of individual auxin mimic herbicides dissolved in water, and 3 μM ^14C—S-Adenosyl methionine (SAM) with a specific activity of 51.4 mCi/mmol (Perkin Elmer, Boston, Mass.). The assay was initiated by addition of SAM, maintained at 25° C. for 30 min, and stopped by addition of […] (150 μL). After phase separation by one min centrifugation at 14,000 g, the upper organic phase was counted using a liquid scintillation counter (Beckman Coulter, Fullerton, Calif.) as previously described (D'Auria et al., 2002). Radioactivity counts in the organic phase indicated the amount of synthesized methyl esters, which are the detoxificated products of individual auxin mimic herbicides. The relative assay activities of PtJBMT and PtJBMTm3 with auxin-based herbicides is illustrated in Table 2 (the activity of PtJBMTm3 with jasmonic acid was set as 1).
# PtJBMTm3 = experiment: Radiochemical methyltransferase assay (detoxification activity) with PtJBMTm3; format: biochemical; details: 1 mM substrate, 3 μM 14C-SAM, 25° C., 30 min; for Relative assay activity of PtJBMT M3: relative to the activity of PtJBMTm3 with jasmonic acid set as 1
# Description: as §1
Compound,Relative assay activity of PtJBMT (PtJBMT) [%],Relative assay activity of PtJBMT M3 (PtJBMTm3) [%],"Relative assay activity of PtJBMT M3 (reference, set as 1) (PtJBMTm3; reference value set as 1)"
O=C(O)CCCc1c[nH]c2ccccc12 [IBA],0.8,30.3,–
Nc1c(Cl)c(Cl)nc(C(=O)O)c1Cl [picloram],3.7,78.1,–
O=C(O)Cc1c[nH]c2cccc(Cl)c12 [4-Cl-IAA],1.1,33.6,–
Cc1cc(Cl)ccc1OCC(=O)O [MCPA],3.5,70.0,–
"O=C(O)c1c(Cl)ccc(Cl)c1Cl [2,3,6 Trichloro-benzoic acid]",15.0,75.4,–
COc1c(Cl)ccc(Cl)c1C(=O)O [dicamba],2.3,73.9,–
"O=C(O)CCCOc1ccc(Cl)cc1Cl [2,4-DB]",0.5,38.7,–
Cc1cc(Cl)ccc1OC(C)C(=O)O (centres unmarked) [mecoprop],12.8,87.5,–
O=C(O)Cc1ccccc1 [PAA],0.8,58.3,–
O=C(O)c1nc(Cl)ccc1Cl [clopyralid],17.1,94.1,–
CC/C=C\C[C@H]1C(=O)CC[C@@H]1CC(=O)O [Jasmonic acid],85.1,–,1
Cc1cc(Cl)ccc1OCCCC(=O)O [MCPB],0.1,11.0,–
CC(Oc1ccc(Cl)cc1Cl)C(=O)O (centres unmarked) [dichlorprop],7.3,73.0,–
O=C(O)c1c(Cl)ccc2cc(Cl)cnc12 [quinclorac],11.2,91.3,–
O=C(O)Cc1cccc2ccccc12 [NAA],7.8,91.8,–
Nc1c(Cl)c(F)nc(OCC(=O)O)c1Cl [fluroxypyr],0.6,4.2,–
"O=C(O)COc1cc(Cl)c(Cl)cc1Cl [2,4,5-T]",0.4,25.5,–
"O=C(O)COc1ccc(Cl)cc1Cl [2,4-D, 2,4-dichlorophenoxyacetic acid]",1.7,57.5,–
CC(C)(Oc1ccc(Cl)cc1)C(=O)O [PCIB],8.0,96.9,–

# From patent publication US20100205696A1, “NOVEL HERBICIDE RESISTANCE GENE” (UNIVERSITY OF TENNESSEE RESEARCH FOUNDATION, priority 2009, published 2010)
